Measurements published in US20260232767A1, “INTERLEUKIN-23 RECEPTOR ANTAGONIST PEPTIDES FOR USE IN THE TREATMENT OF PSORIASIS” (Janssen Pharmaceutica NV, priority 2023, published 2026).

System: subjects with moderate-to-severe plaque psoriasis
Test: PSSD symptom and sign scores, Example 2
Type: in vivo, human
Conditions: for Change from Baseline in PSSD Sign Score, LSMean / Change from Baseline in PSSD Symptom Score, LSMean: MMRM

## CC(=O)NCCCC[C@@H]1NC(=O)[C@H](Cc2c[nH]c3c(C)cccc23)NC(=O)[C@H]([C@@H](C)O)NC(=O)[C@H](CC(N)=O)NC(=O)[C@@H](NC(C)=O)C(C)(C)SSC(C)(C)[C@@H](C(=O)N[C@@H](Cc2ccc(OCCN)cc2)C(=O)N[C@@H](Cc2ccc3ccccc3c2)C(=O)NC2(C(=O)N[C@@H](CCC(=O)O)C(=O)N[C@@H](CC(N)=O)C(=O)N[C@@H](Cc3cccnc3)C(=O)N(C)CC(N)=O)CCOCC2)NC1=O [IL-23 receptor antagonist peptide, Ac-[Pen]*-N-T-[W(7-Me)]-[Lys(Ac)]-[Pen]*-Phe[4-(2-aminoethoxy)]-[2-Nal]-[THP]-E-N-[3-Pal]-Sarc-NH2 (*[Pen]-[Pen]* formdisulfidebond)]
Week 32, 100 mg QD
  Change from Baseline in PSSD Symptom Score, Mean: −28.0
  Change from Baseline in PSSD Symptom Score, Median: −25.0
  Change from Baseline in PSSD Sign Score, LSMean: −45.8
  Change from Baseline in PSSD Symptom Score, LSMean: −36.4
Week 32, 100 mg QD, Baseline Sign Score ≥1, N=43
  Subjects Achieving PSSD Sign Score 0 (%): (14.0%)
Week 32, 100 mg QD, Baseline Symptom Score ≥1, N=43
  Subjects Achieving PSSD Symptom Score 0 (%): (18.6%)
Week 32, Placebo → 100 mg QD
  Change from Baseline in PSSD Sign Score, Mean: −42.3
  Change from Baseline in PSSD Sign Score, Median: −45.0
  Change from Baseline in PSSD Symptom Score, Mean: −31.9
  Change from Baseline in PSSD Symptom Score, Median: −36.0
  Change from Baseline in PSSD Sign Score, LSMean: −41.8
  Change from Baseline in PSSD Symptom Score, LSMean: −33.9
Week 32, Placebo → 100 mg QD, Baseline Sign Score ≥1, crossed-over subjects only
  Subjects Achieving PSSD Sign Score 0 (%): (17.1%)
Week 32, Placebo → 100 mg QD, Baseline Symptom Score ≥1, crossed-over subjects only
  Subjects Achieving PSSD Symptom Score 0 (%): (20.0%)
Week 40, 25 mg BID
  Change from Baseline in PSSD Sign Score, Mean: −34.1
  Change from Baseline in PSSD Sign Score, Median: −34.0
  Change from Baseline in PSSD Symptom Score, Mean: −30.0
  Change from Baseline in PSSD Symptom Score, Median: −32.0
  Change from Baseline in PSSD Sign Score, LSMean: −34.9
  Change from Baseline in PSSD Symptom Score, LSMean: −30.5
Week 40, 25 mg BID, Baseline Sign Score ≥1, N=41
  Subjects Achieving PSSD Sign Score 0 (%): (4.9%)
Week 40, 25 mg BID, Baseline Symptom Score ≥1, N=41
  Subjects Achieving PSSD Symptom Score 0 (%): (9.8%)
Week 40, 25 mg QD
  Change from Baseline in PSSD Sign Score, Mean: −36.9
  Change from Baseline in PSSD Sign Score, Median: −36.0
  Change from Baseline in PSSD Symptom Score, Mean: −33.9
  Change from Baseline in PSSD Symptom Score, Median: −35.0
  Change from Baseline in PSSD Sign Score, LSMean: −29.4
  Change from Baseline in PSSD Symptom Score, LSMean: −25.9
Week 40, 25 mg QD, Baseline Sign Score ≥1, N=43
  Subjects Achieving PSSD Sign Score 0 (%): (11.6%)
Week 40, 25 mg QD, Baseline Symptom Score ≥1, N=43
  Subjects Achieving PSSD Symptom Score 0 (%): (20.9%)
Week 40, 50 mg QD
  Change from Baseline in PSSD Sign Score, Mean: −39.6
  Change from Baseline in PSSD Sign Score, Median: −42.0
  Change from Baseline in PSSD Symptom Score, Mean: −34.9
  Change from Baseline in PSSD Symptom Score, Median: −32.0
  Change from Baseline in PSSD Sign Score, LSMean: −39.5
  Change from Baseline in PSSD Symptom Score, LSMean: −32.7
Week 40, 50 mg QD, Baseline Sign Score ≥1, N=43
  Subjects Achieving PSSD Sign Score 0 (%): (9.3%)
Week 40, 50 mg QD, Baseline Symptom Score ≥1, N=42
  Subjects Achieving PSSD Symptom Score 0 (%): (23.8%)
Week 40, 100 mg BID
  Change from Baseline in PSSD Sign Score, Mean: −52.4
  Change from Baseline in PSSD Sign Score, Median: −54.5
  Change from Baseline in PSSD Symptom Score, Mean: −47.5
  Change from Baseline in PSSD Symptom Score, Median: −49.5
  Change from Baseline in PSSD Sign Score, LSMean: −51.4
  Change from Baseline in PSSD Symptom Score, LSMean: −43.5
Week 40, 100 mg BID, Baseline Sign Score ≥1, N=42
  Subjects Achieving PSSD Sign Score 0 (%): (19.0%)
Week 40, 100 mg BID, Baseline Symptom Score ≥1, N=42
  Subjects Achieving PSSD Symptom Score 0 (%): (28.6%)
Week 40, 100 mg QD
  Change from Baseline in PSSD Sign Score, Mean: −42.4
  Change from Baseline in PSSD Sign Score, Median: −43.0
  Change from Baseline in PSSD Symptom Score, Mean: −28.2
  Change from Baseline in PSSD Symptom Score, Median: −24.0
  Change from Baseline in PSSD Sign Score, LSMean: −45.6
  Change from Baseline in PSSD Symptom Score, LSMean: −36.1
Week 40, 100 mg QD, Baseline Sign Score ≥1, N=43
  Subjects Achieving PSSD Sign Score 0 (%): (18.6%)
Week 40, 100 mg QD, Baseline Symptom Score ≥1, N=43
  Subjects Achieving PSSD Symptom Score 0 (%): (18.6%)
Week 40, Placebo → 100 mg QD
  Change from Baseline in PSSD Sign Score, Mean: −36.6
  Change from Baseline in PSSD Sign Score, Median: −48.5
  Change from Baseline in PSSD Symptom Score, Mean: −23.8
  Change from Baseline in PSSD Symptom Score, Median: −24.0
  Change from Baseline in PSSD Sign Score, LSMean: −36.9
  Change from Baseline in PSSD Symptom Score, LSMean: −27.0
Week 40, Placebo → 100 mg QD, Baseline Sign Score ≥1, crossed-over subjects only
  Subjects Achieving PSSD Sign Score 0 (%): (14.3%)
Week 40, Placebo → 100 mg QD, Baseline Symptom Score ≥1, crossed-over subjects only
  Subjects Achieving PSSD Symptom Score 0 (%): (25.7%)
Week 52, 25 mg BID
  Change from Baseline in PSSD Sign Score, Mean: −36.6
  Change from Baseline in PSSD Sign Score, Median: −38.5
  Change from Baseline in PSSD Symptom Score, Mean: −31.2
  Change from Baseline in PSSD Symptom Score, Median: −27.0
  Change from Baseline in PSSD Sign Score, LSMean: −37.2
  Change from Baseline in PSSD Symptom Score, LSMean: −31.4
Week 52, 25 mg BID, Baseline Sign Score ≥1, N=41
  Subjects Achieving PSSD Sign Score 0 (%): (12.2%)
Week 52, 25 mg BID, Baseline Symptom Score ≥1, N=41
  Subjects Achieving PSSD Symptom Score 0 (%): (17.1%)
Week 52, 25 mg QD
  Change from Baseline in PSSD Sign Score, Mean: −35.2
  Change from Baseline in PSSD Sign Score, Median: −32.5
  Change from Baseline in PSSD Symptom Score, Mean: −30.1
  Change from Baseline in PSSD Symptom Score, Median: −35.0
  Change from Baseline in PSSD Sign Score, LSMean: −27.9
  Change from Baseline in PSSD Symptom Score, LSMean: −22.3
Week 52, 25 mg QD, Baseline Sign Score ≥1, N=43
  Subjects Achieving PSSD Sign Score 0 (%): (16.3%)
Week 52, 25 mg QD, Baseline Symptom Score ≥1, N=43
  Subjects Achieving PSSD Symptom Score 0 (%): (18.6%)
Week 52, 50 mg QD
  Change from Baseline in PSSD Sign Score, Mean: −39.2
  Change from Baseline in PSSD Sign Score, Median: −45.0
  Change from Baseline in PSSD Symptom Score, Mean: −35.2
  Change from Baseline in PSSD Symptom Score, Median: −34.0
  Change from Baseline in PSSD Sign Score, LSMean: −39.0
  Change from Baseline in PSSD Symptom Score, LSMean: −33.0
Week 52, 50 mg QD, Baseline Sign Score ≥1, N=43
  Subjects Achieving PSSD Sign Score 0 (%): (11.6%)
Week 52, 50 mg QD, Baseline Symptom Score ≥1, N=42
  Subjects Achieving PSSD Symptom Score 0 (%): (21.4%)
Week 52, 100 mg BID
  Change from Baseline in PSSD Sign Score, Mean: −53.1
  Change from Baseline in PSSD Sign Score, Median: −55.0
  Change from Baseline in PSSD Symptom Score, Mean: −47.7
  Change from Baseline in PSSD Symptom Score, Median: −53.0
  Change from Baseline in PSSD Sign Score, LSMean: −51.9
  Change from Baseline in PSSD Symptom Score, LSMean: −44.0
Week 52, 100 mg BID, Baseline Sign Score ≥1, N=42
  Subjects Achieving PSSD Sign Score 0 (%): (16.7%)
Week 52, 100 mg BID, Baseline Symptom Score ≥1, N=42
  Subjects Achieving PSSD Symptom Score 0 (%): (26.2%)
Week 52, 100 mg QD
  Change from Baseline in PSSD Sign Score, Mean: −43.1
  Change from Baseline in PSSD Sign Score, Median: −43.0
  Change from Baseline in PSSD Symptom Score, Mean: −29.4
  Change from Baseline in PSSD Symptom Score, Median: −28.0
  Change from Baseline in PSSD Sign Score, LSMean: −45.8
  Change from Baseline in PSSD Symptom Score, LSMean: −36.5
Week 52, 100 mg QD, Baseline Sign Score ≥1, N=43
  Subjects Achieving PSSD Sign Score 0 (%): (14.0%)
Week 52, 100 mg QD, Baseline Symptom Score ≥1, N=43
  Subjects Achieving PSSD Symptom Score 0 (%): (30.2%)
Week 52, Placebo → 100 mg QD
  Change from Baseline in PSSD Sign Score, Mean: −42.8
  Change from Baseline in PSSD Sign Score, Median: −48.5
  Change from Baseline in PSSD Symptom Score, Mean: −29.5
  Change from Baseline in PSSD Symptom Score, Median: −30.0
  Change from Baseline in PSSD Sign Score, LSMean: −43.1
  Change from Baseline in PSSD Symptom Score, LSMean: −32.4
Week 52, Placebo → 100 mg QD, Baseline Sign Score ≥1, crossed-over subjects only
  Subjects Achieving PSSD Sign Score 0 (%): (22.9%)
Week 52, Placebo → 100 mg QD, Baseline Symptom Score ≥1, crossed-over subjects only
  Subjects Achieving PSSD Symptom Score 0 (%): (34.3%)
